Reference: BindingDB's records for PubMed 2905001 (Mcneil Pharmaceutical, 1988)
“And” between values parts separate entries of the source, which are not always exact repeats. Equal values may be shown once. Where a name gives a salt, the structure may show the parent alone.

Legend:
[1] = target: Sodium-dependent dopamine transporter (Rattus norvegicus, UniProt P23977)
[2] = target: Norepinephrine transporter (Rattus norvegicus, UniProt Q9JIA2)
[3] = target: 5-hydroxytryptamine receptor 2A (Rattus norvegicus, UniProt P14842)
[4] = target: T1, Alpha-1A adrenergic receptor (Rattus norvegicus, UniProt P43140)
T1 sequence (P43140 whole entry): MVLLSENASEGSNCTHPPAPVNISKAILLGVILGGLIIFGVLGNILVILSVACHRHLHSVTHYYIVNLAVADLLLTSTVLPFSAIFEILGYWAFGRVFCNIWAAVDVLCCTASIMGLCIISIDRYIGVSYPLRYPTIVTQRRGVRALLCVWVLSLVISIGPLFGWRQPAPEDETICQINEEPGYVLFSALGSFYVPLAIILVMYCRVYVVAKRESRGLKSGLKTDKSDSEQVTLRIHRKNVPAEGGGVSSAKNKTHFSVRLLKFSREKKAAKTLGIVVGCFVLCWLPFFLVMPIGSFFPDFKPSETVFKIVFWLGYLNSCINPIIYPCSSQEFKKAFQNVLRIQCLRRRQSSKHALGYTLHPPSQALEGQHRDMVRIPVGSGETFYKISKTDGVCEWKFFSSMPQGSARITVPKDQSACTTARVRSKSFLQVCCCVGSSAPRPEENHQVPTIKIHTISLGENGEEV

[5] = target: Sodium-dependent serotonin transporter (Rattus norvegicus, UniProt P31652)
Sodium-dependent serotonin transporter, sequence (P31652 whole entry): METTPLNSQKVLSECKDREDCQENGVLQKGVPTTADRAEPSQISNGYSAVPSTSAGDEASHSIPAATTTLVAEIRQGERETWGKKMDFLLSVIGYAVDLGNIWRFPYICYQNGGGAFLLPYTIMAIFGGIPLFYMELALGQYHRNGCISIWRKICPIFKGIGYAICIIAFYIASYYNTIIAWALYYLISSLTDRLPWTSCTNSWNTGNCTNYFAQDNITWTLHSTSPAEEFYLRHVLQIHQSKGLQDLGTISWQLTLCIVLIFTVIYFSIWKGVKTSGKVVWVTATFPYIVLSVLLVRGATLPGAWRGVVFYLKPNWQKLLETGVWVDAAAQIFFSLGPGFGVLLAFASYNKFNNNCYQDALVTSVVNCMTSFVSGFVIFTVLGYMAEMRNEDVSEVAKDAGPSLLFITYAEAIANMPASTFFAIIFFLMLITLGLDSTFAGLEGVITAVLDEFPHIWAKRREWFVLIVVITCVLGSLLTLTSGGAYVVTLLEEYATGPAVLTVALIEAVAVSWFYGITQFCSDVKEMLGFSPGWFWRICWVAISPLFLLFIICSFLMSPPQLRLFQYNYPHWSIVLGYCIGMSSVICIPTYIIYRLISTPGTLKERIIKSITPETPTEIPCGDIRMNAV

5-hydroxytryptamine receptor 2A, sequence (P14842 whole entry): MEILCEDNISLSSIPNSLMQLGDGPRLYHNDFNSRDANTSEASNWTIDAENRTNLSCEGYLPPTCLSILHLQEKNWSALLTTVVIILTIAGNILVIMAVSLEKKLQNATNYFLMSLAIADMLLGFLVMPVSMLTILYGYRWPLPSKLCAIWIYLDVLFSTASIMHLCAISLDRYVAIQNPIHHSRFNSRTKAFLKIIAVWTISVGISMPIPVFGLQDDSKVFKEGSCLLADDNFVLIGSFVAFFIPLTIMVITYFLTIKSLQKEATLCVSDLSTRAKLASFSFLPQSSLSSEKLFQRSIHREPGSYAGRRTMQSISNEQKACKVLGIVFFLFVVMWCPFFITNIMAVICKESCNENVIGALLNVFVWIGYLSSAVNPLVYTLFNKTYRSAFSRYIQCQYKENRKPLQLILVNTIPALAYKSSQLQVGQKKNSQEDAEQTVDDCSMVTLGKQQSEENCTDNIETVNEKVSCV
Sodium-dependent dopamine transporter, sequence (P23977 whole entry): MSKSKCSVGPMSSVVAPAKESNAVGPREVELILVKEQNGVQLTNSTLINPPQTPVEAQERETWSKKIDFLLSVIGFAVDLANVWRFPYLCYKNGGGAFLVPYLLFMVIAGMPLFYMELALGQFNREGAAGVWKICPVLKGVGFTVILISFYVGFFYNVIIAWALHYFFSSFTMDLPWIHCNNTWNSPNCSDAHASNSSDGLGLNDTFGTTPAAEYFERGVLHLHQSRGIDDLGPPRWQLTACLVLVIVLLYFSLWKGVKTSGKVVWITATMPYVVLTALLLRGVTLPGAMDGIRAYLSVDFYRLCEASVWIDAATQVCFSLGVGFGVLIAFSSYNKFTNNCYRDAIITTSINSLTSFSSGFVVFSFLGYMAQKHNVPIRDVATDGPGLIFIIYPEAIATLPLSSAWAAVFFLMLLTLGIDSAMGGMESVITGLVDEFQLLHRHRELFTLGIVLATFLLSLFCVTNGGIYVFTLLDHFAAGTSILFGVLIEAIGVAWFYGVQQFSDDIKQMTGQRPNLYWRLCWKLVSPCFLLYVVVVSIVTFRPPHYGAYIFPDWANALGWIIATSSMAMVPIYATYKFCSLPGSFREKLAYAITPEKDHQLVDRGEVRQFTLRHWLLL

Row | Compound | Ki [1] [nM] | Ki [2] [nM] | Ki [3] | Ki [4] | Ki [5] [nM]
1 | COCCCC/C(=N\OCCN)c1ccc(C(F)(F)F)cc1 [(1E)-5-methoxy-1-[4-(trifluoromethyl)phenyl]pentan-1-one O-(2-aminoethyl)oxime] | > 10000 | 299 | – | – | –
2 | CSc1ccc([C@@H]2CN3CCC[C@@H]3c3ccccc32)cc1 [McN-5652-Z-68] | – | – | 939 nM and 208 nM | 213 nM and 314 nM | –
3 | CSc1ccc(C2CN3CCCC3c3ccccc32)cc1 (stereo unspecified) | 69.8 | – | – | – | –
4 | CN(C)CCCN1c2ccccc2CCc2ccc(Cl)cc21 [CLOMIPRAMINE HYDROCHLORIDE] | 3810 | – | – | – | –
5 | O=c1n(CCCN2CCN(c3cccc(Cl)c3)CC2)nc2ccccn12 [2-{3-[4-(3-chlorophenyl)piperazin-1-yl]propyl}[1,2,4]triazolo[4,3-a]pyridin-3(2H)-one] | > 10000 | 3800 | – | 84 nM | –
6 | CSc1ccc([C@H]2CN3CCC[C@H]3c3ccccc32)cc1 [McN-5652-X-68] | – | – | 142 nM | 274 nM | –
7 | COc1ccc(OC[C@H]2CN(C)CC[C@@H]2c2ccccc2)cc1 [(3R,4S)-3-(4-Methoxy-phenoxymethyl)-1-methyl-4-phenyl-piperidine] | 1040 | – | – | – | –
8 | COCCCCC(=NOCCN)c1ccc(Cl)cc1 [CAS_68717] | 462 | 6.6 | 1000 nM | – | 2.76
9 | CN(C)C/C=C(/c1ccc(Br)cc1)c1cccnc1 [cis-[3-(4-Bromo-phenyl)-3-pyridin-3-yl-allyl]-dimethyl-amine;HCl] | > 10000 | – | – | – | –
10 | c1ccc2c(CCC3CCNCC3)c[nH]c2c1 | 1040 | 513 | 50.2 nM | – | 1.72
